The values below come from patent publication US11746087B1, “C4-carboxylic acid-substituted tryptamine derivatives and methods of using” (priority 2022, dated 2023).

The term IC50 denotes the concentration at which inhibition is half-maximal. As usually defined, the EC50 is the concentration that produces a half-maximal response. What is called Tmax is the time at which the peak concentration occurs.

SMILES strings stand for the structures. “And” between values parts separate entries of the source, which are not always exact repeats. Equal values may be shown once. Some results are limits rather than exact numbers.

One data set deals with NMDAR (Homo sapiens, UniProt Q05586+Q13224). As to the kind of experiment: Ion channel assay (FLIPR membrane potential), blocker. In kind it is cell-based.
Chain of NMDAR (Q13224 27-1484, other chains not shown): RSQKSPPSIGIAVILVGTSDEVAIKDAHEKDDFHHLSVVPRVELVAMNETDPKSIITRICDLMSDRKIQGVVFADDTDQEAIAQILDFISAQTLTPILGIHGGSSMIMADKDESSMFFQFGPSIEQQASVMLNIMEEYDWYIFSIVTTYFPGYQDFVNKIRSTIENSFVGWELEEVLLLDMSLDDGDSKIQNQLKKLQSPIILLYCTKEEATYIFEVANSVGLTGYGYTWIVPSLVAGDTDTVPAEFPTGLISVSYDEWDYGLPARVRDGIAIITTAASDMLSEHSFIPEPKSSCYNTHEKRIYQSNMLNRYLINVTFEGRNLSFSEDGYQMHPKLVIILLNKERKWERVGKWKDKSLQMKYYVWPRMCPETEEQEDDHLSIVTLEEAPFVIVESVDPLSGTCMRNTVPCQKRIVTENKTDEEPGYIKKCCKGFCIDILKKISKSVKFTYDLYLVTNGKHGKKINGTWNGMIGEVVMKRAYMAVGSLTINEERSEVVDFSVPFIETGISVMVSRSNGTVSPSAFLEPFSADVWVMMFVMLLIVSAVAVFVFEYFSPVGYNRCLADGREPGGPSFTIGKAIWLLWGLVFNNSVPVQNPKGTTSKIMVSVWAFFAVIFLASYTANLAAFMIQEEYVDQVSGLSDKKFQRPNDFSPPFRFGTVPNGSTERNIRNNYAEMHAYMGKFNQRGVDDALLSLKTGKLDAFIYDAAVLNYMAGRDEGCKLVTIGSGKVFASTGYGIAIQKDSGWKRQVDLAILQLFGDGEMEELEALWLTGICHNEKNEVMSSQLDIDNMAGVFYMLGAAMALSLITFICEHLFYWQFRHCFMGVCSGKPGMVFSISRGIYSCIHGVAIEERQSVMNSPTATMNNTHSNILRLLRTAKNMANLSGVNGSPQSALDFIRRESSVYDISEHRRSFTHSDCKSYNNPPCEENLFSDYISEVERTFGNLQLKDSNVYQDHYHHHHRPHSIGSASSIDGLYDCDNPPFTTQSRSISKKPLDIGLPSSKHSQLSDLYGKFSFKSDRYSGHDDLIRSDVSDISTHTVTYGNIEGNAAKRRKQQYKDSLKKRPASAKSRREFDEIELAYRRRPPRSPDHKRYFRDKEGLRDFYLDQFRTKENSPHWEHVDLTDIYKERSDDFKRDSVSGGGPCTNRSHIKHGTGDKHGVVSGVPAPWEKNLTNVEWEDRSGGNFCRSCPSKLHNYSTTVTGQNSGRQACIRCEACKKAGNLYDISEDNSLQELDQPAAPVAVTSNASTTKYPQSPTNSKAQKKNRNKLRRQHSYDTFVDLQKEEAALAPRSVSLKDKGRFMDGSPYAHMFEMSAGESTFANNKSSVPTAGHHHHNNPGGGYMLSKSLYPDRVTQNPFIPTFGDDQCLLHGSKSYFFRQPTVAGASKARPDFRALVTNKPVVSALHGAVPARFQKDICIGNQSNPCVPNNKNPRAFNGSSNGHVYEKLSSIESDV
The target of another data set is OPRD1 (Homo sapiens, UniProt P41143). As to the kind of experiment: EFC-based cAMP secondary messenger assay, agonist mode. In kind it is cell-based.
Chain of OPRD1 (P41143 whole entry): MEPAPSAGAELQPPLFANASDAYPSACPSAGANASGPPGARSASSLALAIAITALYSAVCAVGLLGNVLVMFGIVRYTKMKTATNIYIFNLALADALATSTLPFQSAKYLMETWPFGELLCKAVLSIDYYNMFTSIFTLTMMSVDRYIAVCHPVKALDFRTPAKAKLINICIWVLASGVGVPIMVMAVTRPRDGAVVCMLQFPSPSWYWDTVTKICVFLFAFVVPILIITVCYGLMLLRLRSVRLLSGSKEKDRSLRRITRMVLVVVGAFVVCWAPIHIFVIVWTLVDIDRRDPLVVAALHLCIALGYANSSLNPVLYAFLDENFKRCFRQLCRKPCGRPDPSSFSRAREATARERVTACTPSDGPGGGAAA
The next data set has as its target DRD1 (Homo sapiens, UniProt P21728). As to the kind of experiment: EFC-based cAMP secondary messenger assay, antagonist mode. In kind it is cell-based.
Another data set concerns the target AVPR1A (Homo sapiens, UniProt P37288). The data set can be described thus: Calcium secondary messenger assay, agonist mode. It counts as cell-based.
Another data set addresses T1, CHRM2 (Homo sapiens, UniProt P08172).
T1 sequence (P08172 1-466): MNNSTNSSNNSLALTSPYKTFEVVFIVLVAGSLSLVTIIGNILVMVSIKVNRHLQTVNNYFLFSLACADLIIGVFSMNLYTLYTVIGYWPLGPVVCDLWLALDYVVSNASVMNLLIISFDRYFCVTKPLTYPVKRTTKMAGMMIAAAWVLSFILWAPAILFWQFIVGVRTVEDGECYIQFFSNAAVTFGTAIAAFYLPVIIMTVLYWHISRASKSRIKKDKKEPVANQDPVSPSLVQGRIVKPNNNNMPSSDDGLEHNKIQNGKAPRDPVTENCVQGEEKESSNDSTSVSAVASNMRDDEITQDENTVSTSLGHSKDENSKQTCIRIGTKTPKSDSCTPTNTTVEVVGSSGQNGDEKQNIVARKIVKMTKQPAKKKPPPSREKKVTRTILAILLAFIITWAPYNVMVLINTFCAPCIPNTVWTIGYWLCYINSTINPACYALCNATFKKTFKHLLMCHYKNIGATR
As to the kind of experiment: EFC-based cAMP secondary messenger assay, agonist mode. In kind it is cell-based.

Data set [1] in a line: Mouse PK study (IV and PO), plasma parent compound and psilocin by LC-MS/MS. In kind it is in vivo. The settings on record: for detectability of parent compound in plasma, any dose: i.v. and oral, any animals at any dose. An excerpt: Briefly, the procedure was as follows. […] 19, 2022.
The target of data set [2] is T2, HTR1B (5-HTR1B) (Homo sapiens, UniProt P28222). The data set can be described thus: EFC-based cAMP secondary messenger assay, agonist mode. In kind it is cell-based.
T2 sequence (P28222 whole entry): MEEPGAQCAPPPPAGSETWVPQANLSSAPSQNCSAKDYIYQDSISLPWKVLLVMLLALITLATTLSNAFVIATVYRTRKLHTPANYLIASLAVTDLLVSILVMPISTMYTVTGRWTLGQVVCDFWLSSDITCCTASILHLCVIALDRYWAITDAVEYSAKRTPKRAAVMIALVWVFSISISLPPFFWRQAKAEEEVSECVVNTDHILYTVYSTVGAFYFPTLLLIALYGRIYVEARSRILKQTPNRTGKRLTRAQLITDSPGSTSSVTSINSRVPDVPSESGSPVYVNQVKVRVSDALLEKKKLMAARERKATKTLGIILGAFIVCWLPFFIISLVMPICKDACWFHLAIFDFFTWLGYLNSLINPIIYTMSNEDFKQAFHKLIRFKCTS
Another data set concerns the target T3, ADRA1A (Homo sapiens, UniProt P35348).
T3 sequence (P35348 1-466): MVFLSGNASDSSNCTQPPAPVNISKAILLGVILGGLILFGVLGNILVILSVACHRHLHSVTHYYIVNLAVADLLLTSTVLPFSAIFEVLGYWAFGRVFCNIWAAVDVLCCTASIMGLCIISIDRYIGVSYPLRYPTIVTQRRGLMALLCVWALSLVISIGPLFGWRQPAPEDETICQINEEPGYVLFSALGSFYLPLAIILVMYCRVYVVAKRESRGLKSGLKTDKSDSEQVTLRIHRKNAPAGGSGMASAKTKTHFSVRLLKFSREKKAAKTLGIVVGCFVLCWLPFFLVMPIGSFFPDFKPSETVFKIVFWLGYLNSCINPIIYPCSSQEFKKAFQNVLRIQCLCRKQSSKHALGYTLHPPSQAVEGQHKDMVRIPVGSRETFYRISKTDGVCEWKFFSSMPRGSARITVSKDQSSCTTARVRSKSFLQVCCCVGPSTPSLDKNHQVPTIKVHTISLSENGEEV
As to the kind of experiment: Calcium secondary messenger assay, antagonist mode. It counts as cell-based.

The target of data set [3] is T2, HTR1B (5-HTR1B). The data set can be described thus: EFC-based cAMP secondary messenger assay, antagonist mode. It counts as cell-based.
Another data set concerns the target T4, ADRA2A (Homo sapiens, UniProt P08913).
T4 sequence (P08913 1-465): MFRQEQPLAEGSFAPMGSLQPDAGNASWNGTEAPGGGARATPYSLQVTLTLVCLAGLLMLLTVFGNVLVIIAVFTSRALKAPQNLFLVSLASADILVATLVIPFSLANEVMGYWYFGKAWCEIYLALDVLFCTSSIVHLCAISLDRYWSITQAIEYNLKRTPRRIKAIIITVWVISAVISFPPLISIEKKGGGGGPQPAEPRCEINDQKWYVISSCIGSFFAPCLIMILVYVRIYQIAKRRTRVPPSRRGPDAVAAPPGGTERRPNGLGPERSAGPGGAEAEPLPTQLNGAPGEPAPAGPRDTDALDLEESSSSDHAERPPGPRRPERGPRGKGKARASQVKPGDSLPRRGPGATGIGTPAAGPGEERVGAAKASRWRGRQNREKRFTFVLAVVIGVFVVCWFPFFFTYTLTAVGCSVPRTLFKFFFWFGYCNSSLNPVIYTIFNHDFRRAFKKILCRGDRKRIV
As to the kind of experiment: EFC-based cAMP secondary messenger assay, agonist mode. It counts as cell-based.

The target of the next data set is CNR1 (Homo sapiens, UniProt P21554). The data set can be described thus: EFC-based cAMP secondary messenger assay, antagonist mode. In kind it is cell-based.
Chain of CNR1 (P21554 whole entry): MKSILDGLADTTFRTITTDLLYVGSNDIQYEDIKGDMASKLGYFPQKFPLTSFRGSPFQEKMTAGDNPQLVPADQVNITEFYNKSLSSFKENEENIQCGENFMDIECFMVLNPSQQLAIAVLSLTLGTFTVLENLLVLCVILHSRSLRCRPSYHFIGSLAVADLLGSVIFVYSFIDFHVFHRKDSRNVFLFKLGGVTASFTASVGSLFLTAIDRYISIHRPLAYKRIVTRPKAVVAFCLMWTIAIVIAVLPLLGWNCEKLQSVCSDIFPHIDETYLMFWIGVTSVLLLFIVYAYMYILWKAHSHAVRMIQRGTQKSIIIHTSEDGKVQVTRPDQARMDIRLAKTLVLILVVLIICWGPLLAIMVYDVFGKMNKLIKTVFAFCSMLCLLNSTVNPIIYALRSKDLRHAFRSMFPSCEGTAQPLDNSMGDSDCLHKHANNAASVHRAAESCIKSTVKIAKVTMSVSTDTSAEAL

Chain of AVPR1A (P37288 whole entry): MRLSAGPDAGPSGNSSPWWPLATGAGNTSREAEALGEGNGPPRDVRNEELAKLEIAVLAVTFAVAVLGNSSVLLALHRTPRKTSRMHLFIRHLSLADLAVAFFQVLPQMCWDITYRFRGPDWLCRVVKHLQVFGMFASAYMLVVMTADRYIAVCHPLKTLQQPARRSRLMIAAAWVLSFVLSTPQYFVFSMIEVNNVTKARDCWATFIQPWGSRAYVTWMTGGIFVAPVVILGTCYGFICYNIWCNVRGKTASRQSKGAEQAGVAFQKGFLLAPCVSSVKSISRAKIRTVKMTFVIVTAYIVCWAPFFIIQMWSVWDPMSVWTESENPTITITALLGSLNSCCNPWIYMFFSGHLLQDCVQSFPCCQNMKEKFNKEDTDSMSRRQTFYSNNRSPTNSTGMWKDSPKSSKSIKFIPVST
Chain of DRD1 (P21728 whole entry): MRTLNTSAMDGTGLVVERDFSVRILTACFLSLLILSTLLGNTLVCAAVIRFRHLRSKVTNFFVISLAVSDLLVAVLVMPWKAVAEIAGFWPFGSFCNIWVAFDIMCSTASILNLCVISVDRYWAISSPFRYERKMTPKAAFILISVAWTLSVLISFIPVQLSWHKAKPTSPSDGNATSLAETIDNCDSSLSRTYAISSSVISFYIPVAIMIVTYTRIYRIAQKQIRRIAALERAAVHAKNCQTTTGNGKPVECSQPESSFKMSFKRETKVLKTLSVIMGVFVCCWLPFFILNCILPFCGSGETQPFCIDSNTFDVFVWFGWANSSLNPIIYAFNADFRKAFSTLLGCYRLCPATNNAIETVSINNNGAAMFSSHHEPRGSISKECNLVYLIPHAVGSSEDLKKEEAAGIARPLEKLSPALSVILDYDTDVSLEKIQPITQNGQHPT

As to `CN(C)CCc1c[nH]c2cccc(OC(=O)CC3CC3)c12` [C(IV)], the half-inhibitory concentration (IC50) at NMDAR was over 100 µM; at DRD1, 32.9 µM; on ADRA1A it was 26.4 µM; against HTR1B (5-HTR1B) [3] it was over 100 µM; against CNR1, over 100 µM. Besides, the EC50 on OPRD1 is 37.8 µM; at AVPR1A it was over 100 µM; at CHRM2, over 100 µM; at HTR1B (5-HTR1B) [2] it was 0.027 µM; at ADRA2A, over 100 µM. The “Plasma concentration of psilocin” value in [1] (0.275 mg/kg oral C(IV), 4 h, individual animals, BLQ = below 0.2 ng/mL) was “BLQ”; in [1] (0.275 mg/kg oral C(IV), 6 h, individual animals, BLQ = below 0.2 ng/mL), “BLQ”; in data set [1] (0.275 mg/kg oral C(IV), 8 h, individual animals, BLQ = below 0.2 ng/mL), “BLQ”; in data set [1] (0.275 mg/kg oral C(IV), 24 h, individual animals), “No Peak”; in [1] (0.293 mg/kg i.v. C(IV), 8 h, individual animals, BLQ = below 0.2 ng/mL), “No Peak and BLQ (2×)”; in [1] (0.789 mg/kg oral C(IV), 8 h, individual animals, BLQ = below 0.2 ng/mL), “BLQ”. The “Plasma concentration of psilocin” value in data set [1] (0.789 mg/kg oral C(IV), 24 h, individual animals) was “No Peak”; in [1] (2.52 mg/kg oral C(IV), 24 h, individual animals, BLQ = below 0.2 ng/mL), “BLQ and No Peak (2×)”. The “detectability of parent compound in plasma, any dose” value in data set [1] (mouse) is “not detectable in any animals at any dose”.

For the compound `COc1ccc(C(=O)Oc2cccc3[nH]cc(CCN(C)C)c23)cc1` [C(V)], the IC50 at NMDAR is over 100 µM; at DRD1 it was 12 µM; at ADRA1A it was 14.9 µM; against HTR1B (5-HTR1B) [3] it was over 100 µM; against CNR1, over 100 µM. Moreover, the EC50 on OPRD1 was 51.5 µM; at AVPR1A, over 100 µM; at CHRM2, over 100 µM; at HTR1B (5-HTR1B) [2], 0.29 µM; at ADRA2A, over 100 µM. In data set [1] (male, C57Bl/6, mouse, plasma, iv, 1 mg/kg, mouse, C(V) 1 mg/kg i.v., 0.25 h, C(V) not stable in plasma, not considered accurate, read-out: Plasma concentration of C(V)), the concentration at 0.25 h came to 0.834 ng/mL. For the same compound, the time to peak (Tmax) in data set [1] (male, C57Bl/6, mouse, plasma, iv, 1 mg/kg, mouse, C(V) 1 mg/kg i.v., estimates not considered accurate (plasma instability), read-out: tmax of C(V)) is 5 min. Moreover, the stability in plasma entry in [1] (mouse plasma, PK bioanalysis) is “unstable in plasma”. Also, the “detectability of parent compound in plasma, i.v. dosing” value in data set [1] (mouse, 1 mg/kg i.v.) was “only detectable in iv. administered animals”. Also, the “Plasma concentration of C(V)” value in [1] (mouse, C(V) 1 mg/kg i.v., 0.5 h, 1 mg/kg) was “BLQ and No Peak”; in data set [1] (mouse, C(V) 1 mg/kg i.v., 1 h), “No Peak”; in [1] (mouse, C(V) 1 mg/kg i.v., 2 h) it was “No Peak”; in data set [1] (mouse, C(V) 1 mg/kg i.v., 4 h), “No Peak”; in data set [1] (mouse, C(V) 1 mg/kg i.v., 6 h) it was “No Peak”; in data set [1] (mouse, C(V) 1 mg/kg i.v., 8 h), “No Peak”. Also, the “tmax of C(V)” value in data set [1] (mouse, C(V) 1 mg/kg i.v., estimates not considered accurate (plasma instability), 1 mg/kg) is 0.0833 h (2×) and 0.0833 ± 0.00 h. For the same compound, the “Plasma concentration of psilocin” value was “No Peak and BLQ” in data set [1] (mouse, C(V) 1 mg/kg oral, 24 h, 1 mg/kg); “No Peak and BLQ” in data set [1] (mouse, C(V) 3 mg/kg oral, 24 h, 3 mg/kg); “BLQ and No Peak” in data set [1] (mouse, C(V) 10 mg/kg oral, 24 h, 10 mg/kg). Moreover, in data set [1] (mouse, oral, any dose (1, 3, 10 mg/kg)), the “detectability of parent compound in plasma, oral dosing” value was “not detectable”.

With `CN(C)CCc1c[nH]c2cccc(OC(=O)c3c(F)c(F)c(F)c(F)c3F)c12` [C(VI)], the IC50 is over 100 µM against NMDAR; 51.6 µM against DRD1; 26.9 µM on ADRA1A; over 100 µM at HTR1B (5-HTR1B) [3]; over 100 µM against CNR1. Also, the EC50 on OPRD1 was 59.4 µM; on AVPR1A, over 100 µM; on CHRM2, over 100 µM; on HTR1B (5-HTR1B) [2], 0.1 µM; on ADRA2A, 65.1 µM. In addition, the “Plasma concentration of psilocin” value in data set [1] (mouse, C(VI) 1 mg/kg i.v., 8 h) was “BLQ”; in [1] (mouse, C(VI) 1 mg/kg oral, 24 h, 1 mg/kg) it was “BLQ and No Peak”; in [1] (mouse, C(VI) 3 mg/kg oral, 24 h, 3 mg/kg), “BLQ and No Peak”; in data set [1] (mouse, C(VI) 10 mg/kg oral, 24 h), “BLQ”. Besides, in [1] (mouse), the “detectability of parent compound in plasma, any dose” value is given as “not detectable in any animals at any dose”.
